# Source: patent US20040072737A1, “Echinocandin derivatives, their method of preparation and their application as anti-fungal agents” (Aventis Pharma S.A., priority 1997, published 2004)
# System: Glucane Synthesis of Candida Albicans (membranes of Candida albicans)
# Assay: Inhibition of the glucane synthesis of Candida albicans (14C-UDP glucose incorporation by purified membranes)
# Type: biochemical
# Conditions: Candida albicans membrane proteins, 25° C., 1 hour, result in words
# Experimental: A—Inhibition of the Glucane Synthesis of Candida Albicans.
# The membranes of Candida albicans are purified according to the process described by Tang and al Antimicrob. Agents Chemother 35, 99-103, 1991. 22.5 μg of membrane proteins are incubated in a mixture of 2 Mm of 14C-UDP glucose (specific activity=0.34 mCi./mmol, 50 μg of α-amylase, 1 Mm of dithiotreitol (DTT), 1 Mm EDTA, 100 Mm NaF, 7 μM of GTP-γ-S, 1M of sucrose and 5 oMm OF Ttris-HCL (pH 7.8) in a volume of 100 μl. The medium is incubated at 25° C. for 1 hour and the reaction terminated by addition of TCA to a final concentration of 5%. The reaction medium is transferred onto a pre-humidified glass fibre filter. The filter is washed, dried and its radioactivity is counted.
# Mulundocandin is used as positive control.
# The control of the medium is carried out with the same quantity of DMSO 1%.
row,Substance,Inhibition of the glucane synthesis of Candida albicans
1,(±) Trifluoroacetate of 1-[4-[(aminoiminomethyl) hydrazono]-N2-(12-methyl-1-oxotetradecyl)-L-ornithine]4-[4-(4-hydroxyphenyl)-L-threonine]-5-L serine echinocandin B [Example 11],good activity
2,Trifluoroacetate of 1-[4-[(2-aminoethyl) amino]-N2-(12-methyl-1-oxotetradecyl)-L-ornithine]4-[4-(4-hydroxyphenyl)-L-threonine]-5-L serine echinocandin B (isomer A and isomer B) [Example 9],good activity
3,Trifluoroacetate of 1-[4-[(2-aminoethyl) amino]N2-[[4′-(octyloxy)[1.1′-biphenyl]-4-[carbonyl]-L-ornithine]4-[4-(4-(4-hydroxyphenyl)-L-threonine]-5-L serine echinocandin B (isomer A) [Example 14],good activity
